Measured values from the NIST ThermoML archive (doi:10.1021/acs.jced.7b00002).

Assay: xn = mol fraction of the nth substance listed
Conditions: 97.6 kPa, Liquid; for viscosity: Capillary tube (Ostwald / Ubbelohde) method; for mass density: Vibrating tube method

CCCCCCCC[n+]1ccn(C)c1.[Cl-] [1-methyl-3-octylimidazolium chloride] + c1ccncc1
Conditions | mass density [kg/m3] | viscosity [mPa·s]
303.15 K, x1 = 0.128 | 988.9 | 3.46
303.15 K, x1 = 0.255 | 998.25 | 12.71
303.15 K, x1 = 0.339 | 1000.33 | 29.41
303.15 K, x1 = 0.445 | 1002.78 | 84.05
303.15 K, x1 = 0.578 | 1004.43 | 290.77
303.15 K, x1 = 0.755 | 1005.83 | 863.91
303.15 K, x1 = 0.865 | 1005.51 | 2828.1
303.15 K, x1 = 1 | 1006.2 | 7339.7
308.15 K, x1 = 0.128 | 984.71 | 3.11
308.15 K, x1 = 0.255 | 994.55 | 10.87
308.15 K, x1 = 0.339 | 996.84 | 24.13
308.15 K, x1 = 0.445 | 999.45 | 65.58
308.15 K, x1 = 0.578 | 1001.29 | 215.57
308.15 K, x1 = 0.755 | 1002.79 | 599.38
308.15 K, x1 = 0.865 | 1002.58 | 1823.5
308.15 K, x1 = 1 | 1003.33 | 4272.9
313.15 K, x1 = 0.128 | 980.51 | 2.81
313.15 K, x1 = 0.255 | 990.84 | 9.39
313.15 K, x1 = 0.339 | 993.34 | 20.12
313.15 K, x1 = 0.445 | 996.14 | 51.96
313.15 K, x1 = 0.578 | 998.15 | 161.31
313.15 K, x1 = 0.755 | 999.79 | 426
313.15 K, x1 = 0.865 | 999.66 | 1210.7
313.15 K, x1 = 1 | 1000.48 | 2766.9
318.15 K, x1 = 0.128 | 976.31 | 2.56
318.15 K, x1 = 0.255 | 987.14 | 8.17
318.15 K, x1 = 0.339 | 989.85 | 16.97
318.15 K, x1 = 0.445 | 992.85 | 42.02
318.15 K, x1 = 0.578 | 995.01 | 123.18
318.15 K, x1 = 0.755 | 996.82 | 309.61
318.15 K, x1 = 0.865 | 996.75 | 829.67
318.15 K, x1 = 1 | 997.64 | 1788.6
323.15 K, x1 = 0.128 | 972.1 | 2.34
323.15 K, x1 = 0.255 | 983.45 | 7.17
323.15 K, x1 = 0.339 | 986.38 | 14.49
323.15 K, x1 = 0.445 | 989.57 | 34.4
323.15 K, x1 = 0.578 | 991.88 | 96.06
323.15 K, x1 = 0.755 | 993.86 | 230.68
323.15 K, x1 = 0.865 | 993.8 | 583.82
323.15 K, x1 = 1 | 994.82 | 1198.7
328.15 K, x1 = 0.128 | 967.86 | 2.15
328.15 K, x1 = 0.255 | 979.75 | 6.34
328.15 K, x1 = 0.339 | 982.9 | 12.56
328.15 K, x1 = 0.445 | 986.28 | 28.53
328.15 K, x1 = 0.578 | 988.75 | 75.98
328.15 K, x1 = 0.755 | 990.9 | 174.4
328.15 K, x1 = 0.865 | 990.92 | 419.77
328.15 K, x1 = 1 | 992 | 828.3
333.15 K, x1 = 0.128 | 963.58 | 1.98
333.15 K, x1 = 0.255 | 976.06 | 5.65
333.15 K, x1 = 0.339 | 979.42 | 10.81
333.15 K, x1 = 0.445 | 983 | 23.98
333.15 K, x1 = 0.578 | 985.64 | 61.06
333.15 K, x1 = 0.755 | 987.95 | 134.84
333.15 K, x1 = 0.865 | 988.06 | 309.69
333.15 K, x1 = 1 | 989.17 | 588.69
338.15 K, x1 = 0.128 | 959.29 | 1.83
338.15 K, x1 = 0.255 | 972.37 | 5.06
338.15 K, x1 = 0.339 | 975.93 | 9.51
338.15 K, x1 = 0.445 | 979.67 | 20.37
338.15 K, x1 = 0.578 | 982.53 | 49.81
338.15 K, x1 = 0.755 | 984.99 | –
338.15 K, x1 = 0.865 | 985.22 | 233.02
338.15 K, x1 = 1 | 986.38 | 426.28
343.15 K, x1 = 0.128 | 955.03 | 1.7
343.15 K, x1 = 0.255 | 968.68 | 4.56
343.15 K, x1 = 0.339 | 972.4 | 8.37
343.15 K, x1 = 0.445 | 976.42 | 17.42
343.15 K, x1 = 0.578 | 979.44 | 41.06
343.15 K, x1 = 0.755 | 982.04 | 84.08
343.15 K, x1 = 0.865 | 982.37 | 177.92
343.15 K, x1 = 1 | 983.63 | 316.66
348.15 K, x1 = 0.128 | 950.66 | 1.58
348.15 K, x1 = 0.255 | 965 | 4.13
348.15 K, x1 = 0.339 | 968.9 | 7.4
348.15 K, x1 = 0.445 | 973.05 | 15.01
348.15 K, x1 = 0.578 | 976.36 | 34.18
348.15 K, x1 = 0.755 | 979.11 | 68.04
348.15 K, x1 = 0.865 | 979.56 | 138.26
348.15 K, x1 = 1 | 980.88 | 237.14
353.15 K, x1 = 0.128 | 946.27 | 1.48
353.15 K, x1 = 0.255 | 961.31 | 3.76
353.15 K, x1 = 0.339 | 965.27 | 6.63
353.15 K, x1 = 0.445 | 969.48 | 13.03
353.15 K, x1 = 0.578 | 973.29 | 28.74
353.15 K, x1 = 0.755 | 976.18 | 55.2
353.15 K, x1 = 0.865 | 976.69 | 108.95
353.15 K, x1 = 1 | 978.13 | 181.41
